Where “and” joins values, the source holds several entries; their conditions need not be identical. Identical values can stand only once. *1 amine or outer side, *2 acyl side, *3 side chain or, on linkers, in order; H or OH if unused. Where a SMILES comes first, the peptide text is derived from it. [ ]: non-standard residue; d: D form. The star is where a group is joined. GluureaLys(ε-3-ClBenzyl) = O=C(O)CC[C@H](NC(=O)N[C@@H](CCCCN(Cc1cccc(Cl)c1)*)C(=O)O)C(=O)O; Dolaproine = CO[C@@H]([C@@H]1CCCN1)[C@@H](C)C(=O)O; Dil = CC[C@H](C)[C@H](NC)[C@@H](CC(=O)O)OC; X1 = O=C(CCCc1cn(CCCN[*:1])nn1)[*:2]; PABC = O=C(OCc1ccc(N[*:1])cc1)[*:2]; X2 = C[C@@H](N*)[C@@H](O)c1ccccc1; Cit = NC(=O)NCCC[C@H](N)C(=O)O; Suc = O=C(CCC(=O)[*:2])[*:1]; NMeV = CN[C@H](C(=O)O)C(C)C; Ahx = NCCCCCC(=O)O
Legend:
[1] = Toxicity in rat assessed as morphological changes in mucosa of trachea at 150 to 225 microg/kg, iv; type: tissue-based; conditions: in vivo, dose 150-225 µg/kg
[2] = system: Salmonella typhimurium; assay: Mutagenecity in Salmonella typhimurium TA98 without metabolic activation system at 1 ug/ml by Ames test; type: toxicity, organism-based; conditions: salmonella enterica subsp. enterica serovar typhimurium; dose 1 µg/ml
[3] = Clearance in Wistar rat at 1.5 mg/kg, iv; type: ADME, organism-based; conditions: in vivo
[4] = system: Salmonella typhimurium; assay: Mutagenecity in Salmonella typhimurium TA98 without metabolic activation system at 100 ug/ml by Ames test; type: toxicity, organism-based; conditions: salmonella enterica subsp. enterica serovar typhimurium; dose 100 µg/ml
[5] = Toxicity in rat assessed as morphological changes in adrenal gland at 150 to 225 microg/kg, iv; type: tissue-based; conditions: in vivo, dose 150-225 µg/kg
[6] = Stability of compound at pH 5.6 assessed as recombinant cathepsin B mediated hydrolysis by measuring MMAE release by HPLC-MS analysis; type: physicochemical; conditions: buffer
[7] = Toxicity in rat assessed as morphological changes in lungs at 150 to 225 microg/kg, iv; conditions: in vivo, dose 150-225 µg/kg
[8] = system: Salmonella typhimurium; assay: Mutagenecity in Salmonella typhimurium TA97 without metabolic activation system at 1000 ug/ml by Ames test; type: toxicity, organism-based; conditions: salmonella enterica subsp. enterica serovar typhimurium; dose 1000 µg/ml
[9] = Ratio of AUC (t to infinity) to AUC (0 to infinity) in rat at 1.5 mg/kg, iv; type: ADME, organism-based; conditions: in vivo
[10] = AUC (0 to t) in Wistar rat at 1.5 mg/kg, iv; type: ADME, organism-based; design: dose 1.5 mg/kg; conditions: in vivo
[11] = system: Salmonella typhimurium; assay: Mutagenecity in Salmonella typhimurium TA97 in presence of metabolic activation system at 1000 ug/ml by Ames test; type: toxicity, organism-based; conditions: salmonella enterica subsp. enterica serovar typhimurium; dose 1000 µg/ml
[12] = biological target: Cytochrome P450 2C9 (Homo sapiens, UniProt P11712); assay: Inhibition of CYP2C9 in human liver microsome using tolbutamide as substrate; type: ADME, microsomes
Chain of Cytochrome P450 2C9 (P11712 whole entry): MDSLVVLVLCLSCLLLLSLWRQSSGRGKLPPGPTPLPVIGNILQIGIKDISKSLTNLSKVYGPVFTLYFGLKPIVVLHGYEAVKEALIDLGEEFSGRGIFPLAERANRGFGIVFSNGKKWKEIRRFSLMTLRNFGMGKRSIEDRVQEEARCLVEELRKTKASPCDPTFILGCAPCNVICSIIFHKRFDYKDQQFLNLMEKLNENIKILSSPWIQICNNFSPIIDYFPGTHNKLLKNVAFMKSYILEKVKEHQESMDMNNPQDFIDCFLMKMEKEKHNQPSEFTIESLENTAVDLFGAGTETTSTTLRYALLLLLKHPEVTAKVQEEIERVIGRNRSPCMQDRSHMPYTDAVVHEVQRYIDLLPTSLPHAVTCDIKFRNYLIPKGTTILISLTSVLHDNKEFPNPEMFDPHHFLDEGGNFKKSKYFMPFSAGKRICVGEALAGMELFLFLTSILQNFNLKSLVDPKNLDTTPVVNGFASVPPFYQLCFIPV

[13] = system: Salmonella typhimurium; assay: Mutagenecity in Salmonella typhimurium TA100 without metabolic activation system at 1 ug/ml by Ames test; type: toxicity, organism-based; conditions: salmonella enterica subsp. enterica serovar typhimurium; dose 1 µg/ml
[14] = system: Salmonella typhimurium; assay: Mutagenecity in Salmonella typhimurium TA100 in presence of metabolic activation system at 1 ug/ml by Ames test; type: toxicity, organism-based; conditions: salmonella enterica subsp. enterica serovar typhimurium; dose 1 µg/ml
[15] = Toxicity in rabbit assessed as morphological changes in brain ventricle at 81 to 122 microg/kg, iv; type: tissue-based, Oryctolagus cuniculus; conditions: in vivo, dose 81-122 µg/kg
[16] = Toxicity in rabbit assessed as morphological changes in lumen of trachea at 81 to 122 microg/kg, iv; type: tissue-based, Oryctolagus cuniculus; conditions: in vivo, dose 81-122 µg/kg
[17] = Toxicity in rat assessed as morphological changes in thymus at 150 to 225 microg/kg, iv; type: tissue-based; conditions: in vivo, dose 150-225 µg/kg
[18] = Toxicity in rabbit assessed as morphological changes in pancreas at 81 to 122 microg/kg, iv; type: tissue-based, Oryctolagus cuniculus; conditions: in vivo, dose 81-122 µg/kg
[19] = Toxicity in rat assessed as morphological changes in bronchi at 150 to 225 microg/kg, iv; conditions: in vivo, dose 150-225 µg/kg
[20] = system: Salmonella typhimurium; assay: Mutagenecity in Salmonella typhimurium TA97 in presence of metabolic activation system at 10 ug/ml by Ames test; type: toxicity, organism-based; conditions: salmonella enterica subsp. enterica serovar typhimurium; dose 10 µg/ml
[21] = Chronic toxicity in rat assessed as reduced volume of urine at […], iv administered once every 3 weeks for 3 months; type: organism-based; conditions: in vivo, 504 h, dose lower 150 mg/kg
[22] = system: Salmonella typhimurium; assay: Mutagenecity in Salmonella typhimurium TA98 without metabolic activation system at 10000 ug/ml by Ames test; type: toxicity, organism-based; conditions: salmonella enterica subsp. enterica serovar typhimurium; dose 10000 µg/ml
[23] = Toxicity in rabbit assessed as histological change in spermatagonia in seminiferous tubule in testes at 81 to 122 microg/kg, iv; design: species or system Oryctolagus cuniculus; conditions: in vivo, dose 81-122 µg/kg
[24] = Toxicity in rabbit assessed as morphological changes in spleen at 81 to 122 microg/kg, iv; type: tissue-based, Oryctolagus cuniculus; conditions: in vivo, dose 81-122 µg/kg
[25] = system: Salmonella typhimurium; assay: Mutagenecity in Salmonella typhimurium TA97 without metabolic activation system at 10 ug/ml by Ames test; type: toxicity, organism-based; conditions: salmonella enterica subsp. enterica serovar typhimurium; dose 10 µg/ml
[26] = Toxicity in rabbit assessed as morphological changes in brain sulcus at 81 to 122 microg/kg, iv; type: tissue-based, Oryctolagus cuniculus; conditions: in vivo, dose 81-122 µg/kg
[27] = Chronic toxicity in rat assessed as diarrhea at 10 microg/kg, iv; conditions: in vivo, 0.01 mg/kg, dose 10 µg/kg
[28] = AUC (0 to infinity) in Wistar rat at 1.5 mg/kg, iv; type: ADME, organism-based; design: time infinity, route intravenous, dose 1.5 mg/kg; conditions: in vivo
[29] = Toxicity in rabbit assessed as morphological changes in kidney at 81 to 122 microg/kg, iv; type: tissue-based, Oryctolagus cuniculus; conditions: in vivo, dose 81-122 µg/kg
[30] = Chronic toxicity in rat assessed as mortality rate at 10 microg/kg, iv dosed measured after 3 days; type: organism-based; conditions: in vivo, 0.01 mg/kg, dose 10 µg/kg, time 3 day, read-out: Activity
[31] = system: Salmonella typhimurium; assay: Mutagenecity in Salmonella typhimurium TA100 in presence of metabolic activation system at 10 ug/ml by Ames test; type: toxicity, organism-based; conditions: salmonella enterica subsp. enterica serovar typhimurium; dose 10 µg/ml
[32] = Toxicity in rabbit assessed as morphological changes in abdominal cavity at 81 to 122 microg/kg, iv; design: species or system Oryctolagus cuniculus; conditions: in vivo, dose 81-122 µg/kg
[33] = biological target: Cathepsin B (Homo sapiens, UniProt P07858); assay: Stability of compound assessed as recombinant cathepsin B (unknown origin) mediated hydrolysis; type: ADME
[34] = Toxicity in rabbit morphological change in tongue at 81 to 122 microg/kg, iv; type: tissue-based, Oryctolagus cuniculus; conditions: in vivo, dose 81-122 µg/kg
[35] = Stability of compound in pH 7.4 assessed as hydrolysis measured within 96 hrs; type: physicochemical; conditions: buffer, pH 7.4, 96 h
[36] = system: Salmonella typhimurium; assay: Mutagenecity in Salmonella typhimurium TA97 in presence of metabolic activation system at 1 ug/ml by Ames test; type: toxicity, organism-based; conditions: salmonella enterica subsp. enterica serovar typhimurium; dose 1 µg/ml
[37] = Toxicity in rat assessed as morphological changes in kidney at 150 to 225 microg/kg, iv; type: tissue-based; conditions: in vivo, dose 150-225 µg/kg
[38] = Acute toxicity in iv dosed ICR mouse assessed as median mortality dose; type: organism-based; conditions: in vivo
[39] = Toxicity in mouse assessed as change in body weight at 0.3 mg/kg, iv measured after 20 days; type: organism-based; conditions: in vivo, 480 h, time 20 day
[40] = Toxicity in rabbit assessed as morphological changes in heart muscle at 81 to 122 microg/kg, iv; type: tissue-based, Oryctolagus cuniculus; conditions: in vivo, dose 81-122 µg/kg
[41] = Toxicity in rabbit assessed as morphological changes in heart at 81 to 122 microg/kg, iv; type: tissue-based, Oryctolagus cuniculus; conditions: in vivo, dose 81-122 µg/kg
[42] = Elimination rate constant in rabbit at 0.81 mg/kg, iv; type: ADME, organism-based, Oryctolagus cuniculus; conditions: in vivo
[43] = Toxicity in rabbit assessed as morphological changes in capsule of the kidney at 81 to 122 microg/kg, iv; type: tissue-based, Oryctolagus cuniculus; conditions: in vivo, dose 81-122 µg/kg
[44] = Toxicity in rat assessed as morphological changes in brain sulcus at 150 to 225 microg/kg, iv; type: tissue-based; conditions: in vivo, dose 150-225 µg/kg
[45] = Toxicity in rat assessed as morphological changes in urinary bladder at 150 to 225 microg/kg, iv; conditions: in vivo, dose 150-225 µg/kg
[46] = Toxicity in rabbit assessed as local irritation in testes at 81 to 122 microg/kg, iv; design: species or system Oryctolagus cuniculus; conditions: in vivo, dose 81-122 µg/kg
[47] = Toxicity in rat assessed as morphological changes in diameter of aorta at 150 to 225 microg/kg, iv; type: tissue-based; conditions: in vivo, dose 150-225 µg/kg

For CC[C@H](C)[C@@H]([C@@H](CC(=O)N1CCC[C@H]1[C@H](OC)[C@@H](C)C(=O)N[C@H](C)[C@@H](O)c1ccccc1)OC)N(C)C(=O)[C@@H](NC(=O)[C@H](C(C)C)N(C)C(=O)OCc1ccc(NC(=O)[C@H](CCCNC(N)=O)NC(=O)[C@@H](NC(=O)CCCc2cn(CCCNC(=O)[C@H](Cc3ccc(O)cc3)NC(=O)[C@H](Cc3ccccc3)NC(=O)CCC(=O)NCCCCCC(=O)N(CCCC[C@H](NC(=O)N[C@@H](CCC(=O)O)C(=O)O)C(=O)O)Cc3cccc(Cl)c3)nn2)C(C)C)cc1)C(C)C ({GluureaLys(ε-3-ClBenzyl)-Ahx-Suc}-FY[X1]V[Cit][PABC][NMeV]V[Dil][Dolaproine]-X2), the Activity [1] was “Non-Toxic”, the Activity [2] was “Non-Toxic” and the clearance [3] was 0.317 mL/min/kg. For the same compound, the Activity [4] was “Non-Toxic”, the Activity [5] was “Non-Toxic” and the Stability [6] was “Unstable”. For the same compound, the Activity [7] was “Non-Toxic”, the Activity [8] was “Non-Toxic” and the Ratio [9] was 14%. For the same compound, the AUC(0-t) [10] was 76000 ng·h/mL, the Activity [11] was “Non-Toxic” and the IC50 [12] was > 25 µM. The Activity [13] was “Non-Toxic”, the Activity [14] was “Non-Toxic” and the Activity [15] was “Non-Toxic”. For the same compound, the Activity [16] was “Non-Toxic”, the Activity [17] was “Non-Toxic” and the Activity [18] was “Non-Toxic”. The Activity [19] was “Non-Toxic”, the Activity [20] was “Non-Toxic” and the Activity [21] was “Toxic”. The Activity [22] was “Non-Toxic”, the Activity [23] was “Toxic” and the Activity [24] was “Non-Toxic”. The Activity [25] was “Non-Toxic”, the Activity [26] was “Non-Toxic” and the Activity [27] was “Toxic”. The AUC(0-inf) [28] was 88000 ng·h/mL, the Activity [29] was “Non-Toxic” and the mortality at 72 h [30] was 90%. For the same compound, the Activity [31] was “Non-Toxic”, the Activity [32] was “Non-Toxic” and the Stability [33] was “Stable”. The Activity [34] was “Non-Toxic”, the Stability [35] was “Stable” and the Activity [36] was “Non-Toxic”. For the same compound, the Activity [37] was “Non-Toxic”, the LD50 [38] was 6.3 mg/kg and 2.7 µmol/kg and the Activity [39] was “Non-Toxic”. The Activity [40] was “Non-Toxic”, the Activity [41] was “Non-Toxic” and the k el [42] was 4.72e-05 s⁻¹. For the same compound, the Activity [43] was “Non-Toxic”, the Activity [44] was “Non-Toxic” and the Activity [45] was “Non-Toxic”. The Activity [46] was “Non-Toxic” and the Activity [47] was “Non-Toxic”.

Source: ChEMBL document CHEMBL5034037, “Synthesis, Characterization, and Preclinical Evaluation of a Small-Molecule Prostate-Specific Membrane Antigen-Targeted Monomethyl Auristatin E Conjugate” (J Med Chem, 2021)
